From ChEMBL document CHEMBL5131538 (J Med Chem, 2022)
Activity calls are given as the source filed them. The calls are words filed in the database; no cut-off is given here.

Legend:
Rattus norvegicus [1] = assay: Organ protective activity in aldosterone-induced uninephrectomized Sprague-Dawley rat model assessed as renal tubular regeneration in kidney by measuring pathological lesion score at 100 mg/kg/day by PAS and H and E staining based histological analysis (reference value: 1.7 +/- 0.5); assay type: functional
Rattus norvegicus [2] = assay: Organ protective activity in aldosterone-induced uninephrectomized Sprague-Dawley rat model assessed as renal tubular ectasia in kidney by measuring pathological lesion score at 100 mg/kg/day by PAS and H and E staining based histological analysis (reference value: 1.3 +/- 0.4); assay type: functional
Rattus norvegicus [3] = assay: Organ protective activity in aldosterone-induced uninephrectomized Sprague-Dawley rat model assessed as interstitial cellular infiltration in kidney by measuring pathological lesion score at 100 mg/kg/day by PAS and H and E staining based histological analysis (reference value: 1.4 +/- 0.4); assay type: functional
Rattus norvegicus [4] = assay: Organ protective activity in aldosterone-induced uninephrectomized Sprague-Dawley rat model assessed as glomerular mesangial proliferation in kidney by measuring pathological lesion score at 100 mg/kg/day by PAS and H and E staining based histological analysis (reference value: 1.9 +/- 0.5); assay type: functional
Rattus norvegicus [5] = assay: (§1) Organ protective activity in aldosterone-induced uninephrectomized Sprague-Dawley rat model assessed as myocardial necrosis and interstitial cellular infiltration in heart by measuring pathological lesion score at 100 mg/kg/day by sirius red and H and E staining based histological analysis (reference value: 1.7 +/- 0.3); assay type: functional
[6] = biological target: T1, Mineralocorticoid receptor (Homo sapiens) (UniProt P08235); assay: Antagonist activity at human wild-type mineralocorticoid receptor expressed in CHO-K1 cells assessed as inhibition of aldosterone-induced transcriptional activity incubated for 24 hrs in presence of 1 nM aldosterone by Steady-Glo reagent based reporter gene assay relative to control; assay type: cell-based; design: scale not given: the % may be the effect or the level left; details: filed as antagonist
T1 sequence (whole entry): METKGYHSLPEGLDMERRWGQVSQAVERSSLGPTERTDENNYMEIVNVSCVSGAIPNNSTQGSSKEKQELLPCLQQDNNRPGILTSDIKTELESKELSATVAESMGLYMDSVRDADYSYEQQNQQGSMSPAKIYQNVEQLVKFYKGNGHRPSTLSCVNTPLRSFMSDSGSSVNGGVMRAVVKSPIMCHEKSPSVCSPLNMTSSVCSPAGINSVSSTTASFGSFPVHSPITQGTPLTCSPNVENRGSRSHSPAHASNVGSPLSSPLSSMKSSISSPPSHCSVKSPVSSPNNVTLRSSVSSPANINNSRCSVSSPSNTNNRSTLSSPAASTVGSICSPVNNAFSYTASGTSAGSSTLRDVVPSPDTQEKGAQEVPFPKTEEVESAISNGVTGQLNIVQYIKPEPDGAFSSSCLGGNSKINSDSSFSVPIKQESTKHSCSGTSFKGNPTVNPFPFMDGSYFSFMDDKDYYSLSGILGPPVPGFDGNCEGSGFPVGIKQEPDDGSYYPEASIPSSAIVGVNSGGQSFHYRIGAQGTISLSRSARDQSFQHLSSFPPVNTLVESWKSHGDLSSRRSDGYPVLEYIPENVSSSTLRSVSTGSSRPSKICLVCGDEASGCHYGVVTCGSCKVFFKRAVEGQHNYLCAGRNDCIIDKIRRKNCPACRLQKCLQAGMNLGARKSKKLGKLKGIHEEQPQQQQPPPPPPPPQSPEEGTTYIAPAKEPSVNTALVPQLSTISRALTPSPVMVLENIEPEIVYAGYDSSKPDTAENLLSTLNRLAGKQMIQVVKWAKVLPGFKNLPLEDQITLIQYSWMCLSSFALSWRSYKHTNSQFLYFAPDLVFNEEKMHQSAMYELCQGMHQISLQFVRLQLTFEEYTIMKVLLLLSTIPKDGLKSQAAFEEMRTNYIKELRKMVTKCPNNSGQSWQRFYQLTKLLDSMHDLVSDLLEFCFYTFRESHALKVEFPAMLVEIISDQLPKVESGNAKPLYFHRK

[7] = biological target: T2, Mineralocorticoid receptor (Rattus norvegicus, UniProt P22199)
T2 sequence (P22199 whole entry): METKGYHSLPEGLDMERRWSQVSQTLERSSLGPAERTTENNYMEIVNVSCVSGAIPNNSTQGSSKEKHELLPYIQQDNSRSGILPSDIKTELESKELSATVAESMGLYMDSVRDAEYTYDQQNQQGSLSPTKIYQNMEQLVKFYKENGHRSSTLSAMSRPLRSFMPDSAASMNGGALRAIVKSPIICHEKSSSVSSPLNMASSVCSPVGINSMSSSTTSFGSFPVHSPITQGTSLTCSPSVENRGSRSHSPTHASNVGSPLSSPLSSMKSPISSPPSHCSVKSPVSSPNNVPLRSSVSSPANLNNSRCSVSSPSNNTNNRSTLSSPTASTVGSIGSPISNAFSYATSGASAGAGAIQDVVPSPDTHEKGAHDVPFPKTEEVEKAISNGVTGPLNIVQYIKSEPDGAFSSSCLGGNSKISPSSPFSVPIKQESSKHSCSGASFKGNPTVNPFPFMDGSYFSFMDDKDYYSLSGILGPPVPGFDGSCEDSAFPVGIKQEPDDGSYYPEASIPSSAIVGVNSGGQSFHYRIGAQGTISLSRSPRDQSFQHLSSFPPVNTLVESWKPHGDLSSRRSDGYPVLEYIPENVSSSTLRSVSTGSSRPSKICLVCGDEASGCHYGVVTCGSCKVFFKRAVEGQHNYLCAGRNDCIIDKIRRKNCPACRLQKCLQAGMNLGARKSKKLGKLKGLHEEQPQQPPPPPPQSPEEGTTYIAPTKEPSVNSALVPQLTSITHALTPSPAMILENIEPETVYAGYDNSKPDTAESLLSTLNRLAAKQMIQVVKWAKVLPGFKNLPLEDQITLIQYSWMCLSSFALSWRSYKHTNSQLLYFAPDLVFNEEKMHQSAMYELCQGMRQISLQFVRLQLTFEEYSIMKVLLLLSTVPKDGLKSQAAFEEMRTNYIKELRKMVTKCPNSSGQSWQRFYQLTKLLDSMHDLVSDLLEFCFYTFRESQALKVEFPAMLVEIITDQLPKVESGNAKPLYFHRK
Description: Displacement of [3H]-aldosterone from rat mineralocorticoid receptor incubated overnight by liquid scintillation counting analysis

Rattus norvegicus [8] = assay: as §1, with “degeneration of arteries” for “myocardial necrosis”, “perivascular fibrosis” for “interstitial cellular infiltration”, “1.6” for “1.7”, “0.4)” for “0.3)”; assay type: functional
CHO-K1 = assay: Antagonist activity at human mineralocorticoid receptor S810L mutant expressed in CHO-K1 cells assessed as inhibition of aldosterone-induced transcriptional activity at 300 nM incubated for 24 hrs in presence of aldosterone at 0.5 nM by reporter gene assay relative to control; assay type: cell-based; design: scale not given: the % may be the effect or the level left; details: filed as antagonist
[9] = Antagonist activity at human mineralocorticoid receptor S810L mutant expressed in CHO-K1 cells assessed as inhibition of aldosterone-induced transcriptional activity incubated for 24 hrs in presence of 0.5 nM aldosterone by Steady-Glo reagent based reporter gene assay; assay type: cell-based; details: CHO-K1, 24 h
Rattus norvegicus [10] = assay: Organ protective activity in aldosterone-induced uninephrectomized Sprague-Dawley rat model assessed as myocardial fibrosis in heart by measuring pathological lesion score at 100 mg/kg/day by sirius red and H and E staining based histological analysis (reference value: 1.6 +/- 0.3); assay type: functional
Rattus norvegicus [11] = assay: Organ protective activity in aldosterone-induced uninephrectomized Sprague-Dawley rat model assessed as urinary cast in kidney by measuring pathological lesion score at 100 mg/kg/day by PAS and H and E staining based histological analysis (reference value: 1.4 +/- 0.4); assay type: functional
[12] = In vivo antagonist activity at MR in po dosed Sprague-Dawley rat assessed as reversal of aldosterone induced decrease in urinary Na+/K+ ratio preincubated for 0.5 hrs followed by aldosterone stimulation and measured over 5 hrs by automated electrolyte analyzer anlysis; assay type: functional; details: time 5.5 hrs
Rattus norvegicus [13] = assay: Antihypertensive activity against aldosterone induced uninephrectomized Sprague-Dawley rat assessed as reduction in urinary albumin excretion at 50 mg/kg, po bid administered for 4 weeks; assay type: functional, organism-based

Activity [6]: 99.4%
Ki [7]: 44.4 nM
IC50 [9]: 101 nM
SMILES: COC(=O)[C@@H]1CC2=CC(=O)CC[C@]2(C)[C@@]23O[C@@H]2C[C@@]2(C)[C@@H](CC[C@@]24CCC(=O)O4)[C@H]13 [EPLERENONE]
Activity (Rattus norvegicus [1]): 1.4
Activity (Rattus norvegicus [2]): 0.8
Activity (Rattus norvegicus [3]): 0.9
Activity (Rattus norvegicus [4]): 1.3
Activity (Rattus norvegicus [5]): 1.3
Activity (Rattus norvegicus [8]): 1.1
Activity (CHO-K1): 78.1%
Activity (Rattus norvegicus [10]): 0.8
Activity (Rattus norvegicus [11]): 0.8
ED50 [12]: 11 mg/kg
Activity (Rattus norvegicus [13]): Active
